Measured values taken from publication PMC9099121, “Population pharmacokinetic and exposure‐response analyses from ALTA‐1L: Model‐based analyses supporting the brigatinib dose in ALK‐positive NSCLC” (Clinical and Translational Science, 2022).

Experiments:
[1] = Population PK model post hoc estimates, ALTA (second-line); type: in vivo, human; details: geometric mean (5th and 95th percentiles); ALTA n = 201
Source text: The previously developed population PK model[11] was used for population PK analyses of ALTA‐1L data. The previous analysis provided a robust and comprehensive characterization of brigatinib PK and sources of variability. Importantly, the previous analysis included 202 patients with ALK+ NSCLC that progressed on other ALK TKIs, representing a similar patient population to patients receiving first‐line brigatinib in ALTA‐1L. These considerations supported a Bayesian re‐estimation approach for deriving individual brigatinib PK parameters in ALTA‐1L using the previously reported model, and the model was applied without modification. In brief, the population PK model described brigatinib PK using a three‐compartment model with linear distribution and elimination kinetics and first‐order absorption preceded by a set of transit compartments.[11] The model included albumin concentration as a covariate on apparent oral clearance (CL/F). Bayesian re‐estimation was performed by setting initial model conditions to values of fixed effects and random effect variances previously estimated,[11] allowing for estimation of individual PK parameters based on the PK observations in the ALTA‐1L dataset.
(§1) Diagnostic plots were created to compare brigatinib PK in patients in ALTA‐1L (first‐line setting) and ALTA (second‐line setting). […] In exploratory analyses, relationships between covariates of interest and model‐based exposure estimates were evaluated using linear regression models with each covariate as a predictor.

[2] = Linear regression of covariates versus post hoc steady-state AUC, ALTA-1L; type: in vivo, human; details: for Percentage change in steady-state AUC relative to value at median covariate [95% CI] / Percentage change in median AUC (with 95% CI) relative to the most common reference category: 180 mg once daily
Method: as §1

[3] = tested on: advanced ALK inhibitor-naive ALK+ NSCLC; details: cited from earlier work
ALK+ NSCLC = assay: Exposure-ORR/iORR logistic regression, ALTA-1L; type: in vivo, human
Source text: The exposure‐efficacy analyses related reported efficacy outcomes (blinded IRC [BIRC]‐assessed PFS, ORR, and iORR) to individual brigatinib exposures predicted using individual estimated PK parameters from the population PK model. Model‐based estimates of CL/F and actual dosing history were used to derive exposure metrics of interest. Several exposure metrics were considered, including both static and dynamic area under the concentration‐time curve (AUC) estimates (Methods S1).
For ORR and iORR, each patient was classified as a responder (i.e., achieving confirmed complete or partial systemic ORR or iORR response) or a nonresponder. Relationships between ORR and iORR and brigatinib exposure were analyzed using two static exposure metrics: time‐averaged AUC between the last two disease assessment scans preceding best confirmed response and time‐averaged AUC until best confirmed response (ORR or iORR). Exposure–clinical response relationships were characterized by logistic regression models. Predicted logistic regression curve and observed response rate in each brigatinib exposure quartile or tertile (along with associated 95% CIs) were plotted.
Time averaged AUC until best confirmed response (ORR or iORR)= Cumulative dose to best confirmed systemic ORR or intracranial iORR responseOral brigatinib clearance/ (days to best confirmed systemic or intracranial response)
Static metrics of time-averaged exposure between the last two disease assessment scans preceding PFS, ORR, or iORR, or censoring (refer to 2)

[4] = Exposure-safety analysis and AE incidence, ALTA-1L; type: in vivo, human
Source text: […] AEs of interest selected for analysis included eight grade two or higher AEs (increased alanine aminotransferase [ALT], AST, or amylase; hyperglycemia; hypertension; bradycardia; rash; and pulmonary events [pneumonitis or ILD]), five grade three or higher AEs (increased CPK, AST, ALT, amylase, and lipase), and a composite grade three or higher AE end point that included grade three or higher CPK, AST, ALT, amylase, or lipase elevations; hyperglycemia; hypertension; bradycardia; rash; and pulmonary events.
AEs were included in the analysis if they occurred any time between the first day of brigatinib dosing and 30 days after the last dose. AEs were defined according to the National Cancer Institute Common Toxicity Criteria for Adverse Events version 4.03. The relationship between time‐averaged exposure and AE probability was examined using the same logistic regression models described for the exposure–clinical response analyses. Probability of an AE was plotted against exposure, with observed probabilities calculated by exposure quartiles.
The relationship between brigatinib exposure and time to first brigatinib dose reduction was also explored. A KM plot of time to first brigatinib dose reduction was generated, with survival curves binned by brigatinib exposure quartiles, where exposure was defined as the time‐averaged AUC to the first occurrence of dose reduction.

[5] = in ALTA and ALTA-1L; cited from earlier work

Which “Albumin covariate effect on CL/F” value [1] does the source give for `COc1cc(N2CCC(N3CCN(C)CC3)CC2)ccc1Nc1ncc(Cl)c(Nc2ccccc2P(C)(C)=O)n1` [brigatinib] here?
Its value is 0.939 (0.758, 1.09).

What about the CL/F [1] of the same compound?
Its CL/F is 9.90 (4.06, 23.0) L/h.

What about the Mean transit time [1] of the same compound?
The Mean transit time was 0.998 (0.584, 1.92) h.

What about the Q2/F [1] of the same compound?
The Q2/F was 12.6 (12.6, 12.6) L/h.

What about the Q3/F [1] of the same compound?
Its Q3/F is 2.67 (2.67, 2.67) L/h.

And the V1/F [1]?
The V1/F was 199 (86.0, 468) L.

What about the V2/F [1] of the same compound?
The V2/F was 124 (78.3, 259) L.

And the V3/F [1]?
The V3/F was 78.5 (78.5, 78.5) L.

What about the “Percentage change in steady-state AUC relative to value at median covariate [95% CI]” value ([2]; ALT, 5th percentile) of the same compound?
The value was 0 [-6; 4] %.

What about the “Percentage change in steady-state AUC relative to value at median covariate [95% CI]” value ([2]; ALT, 95th percentile) of the same compound?
The value was 2 [-21; 28] %.

And the “Percentage change in steady-state AUC relative to value at median covariate [95% CI]” value ([2]; AST, 5th percentile)?
The value was -4 [-9; 4] %.

And the “Percentage change in steady-state AUC relative to value at median covariate [95% CI]” value ([2]; AST, 95th percentile)?
The value was 11 [-11; 38] %.

And the “Percentage change in steady-state AUC relative to value at median covariate [95% CI]” value ([2]; age, 5th percentile)?
The value was -26 [-39; -15] %.

And the “Percentage change in steady-state AUC relative to value at median covariate [95% CI]” value ([2]; age, 95th percentile)?
Its value is 27 [15; 43] %.

What about the “Percentage change in steady-state AUC relative to value at median covariate [95% CI]” value ([2]; albumin at baseline, 5th percentile) of the same compound?
Its value is 3 [1; 14] %.

What about the “Percentage change in steady-state AUC relative to value at median covariate [95% CI]” value ([2]; albumin at baseline, 95th percentile) of the same compound?
The value was -2 [-5; 0] %.

And the “Percentage change in steady-state AUC relative to value at median covariate [95% CI]” value ([2]; body weight, 5th percentile)?
The value was 12 [3; 21] %.

What about the “Percentage change in steady-state AUC relative to value at median covariate [95% CI]” value ([2]; body weight, 95th percentile) of the same compound?
Its value is -18 [-31; -5] %.

What about the “Percentage change in steady-state AUC relative to value at median covariate [95% CI]” value ([2]; eGFR, 5th percentile) of the same compound?
The value was 2 [-9; 14] %.

What about the “Percentage change in steady-state AUC relative to value at median covariate [95% CI]” value ([2]; eGFR, 95th percentile) of the same compound?
Its value is -3 [-22; 15] %.

What about the “Percentage change in median AUC (with 95% CI) relative to the most common reference category” value ([2]; race: Asian (n = 53) vs White (n = 68)) of the same compound?
Its value is -6 [-21; 12] %.

And the “Percentage change in median AUC (with 95% CI) relative to the most common reference category” value ([2]; sex: Female (n = 60) vs Male (n = 63))?
The value was 15 [-3; 37] %.

What about the “Percentage change in steady-state AUC relative to value at median covariate [95% CI]” value ([2]; total bilirubin, 5th percentile) of the same compound?
Its value is -11 [-24; 8] %.

And the “Percentage change in steady-state AUC relative to value at median covariate [95% CI]” value ([2]; total bilirubin, 95th percentile)?
The value was 17 [-12; 41] %.

What about the “Magnitude of relative difference in predicted AUC for each stratum compared with the most common stratum” value ([2]; categorical covariates (sex and race), ALTA-1L) of the same compound?
The value was “less than 20%”.

And the “Magnitude of relative difference in predicted AUC at 5th and 95th percentiles relative to median of covariate” value ([2]; continuous covariates (age, eGFR, body weight, total bilirubin, AST, ALT), ALTA-1L)?
Its value is “below 30%”.

And the “Variability in post hoc AUC, 5th and 95th percentiles relative to predicted AUC for a typical patient” value ([2]; overall ALTA-1L population, typical patient with albumin 41 g/L)?
Its value is −60% to +263.

What about the “Hazard ratio versus crizotinib (superiority, PFS)” value ([3]; ALTA-1L first interim analysis, 95% CI: 0.33–0.74, p < 0.001) of the same compound?
Its value is 0.49.

And the “Early onset pulmonary events, patients” value ([3]; ALTA-1L)?
The value was 3%.

What about the “Median PFS” value ([3]; ALTA-1L) of the same compound?
The value was at least 2 years.

And the “Median time to first brigatinib dose reduction” value ([3]; ALTA-1L)?
The value was ~ 2 years.

What about the “2-year intracranial PFS rate” value ([3]; ALTA-1L, patients with any baseline brain metastases) of the same compound?
The value was 48%.

What about the iORR ([3]; second ALTA-1L interim analysis, patients with measurable baseline brain metastases) of the same compound?
The iORR was 78%.

What about the “Estimated probability of iORR” value (ALK+ NSCLC; 5th exposure percentile following 180 mg dosing) of the same compound?
Its value is 0.58.

What about the “Estimated probability of iORR” value (ALK+ NSCLC; 50th (median) exposure percentile following 180 mg dosing) of the same compound?
The value was 0.83.

And the “Estimated probability of iORR” value (ALK+ NSCLC; 50th (median) exposure percentile following 180 mg dosing, listed as Brigatinib)?
The value was 0.83 (0.58–0.99).

And the “Estimated probability of iORR” value (ALK+ NSCLC; 95th exposure percentile following 180 mg dosing)?
The value was 0.99.

And the “Odds ratio for probability of achieving iORR versus exposure” value (ALK+ NSCLC; time-averaged AUC between the last two disease assessments preceding best confirmed intracranial response, 95% CI: 1.01–1.28, p = 0.049, n = 42)?
The value was 1.13.

And the “Odds ratio for probability of achieving ORR versus exposure” value (ALK+ NSCLC; time-averaged AUC between the last two disease assessments preceding best confirmed objective response, 95% CI: 0.93–1.01, p = 0.108)?
The value was 0.97.

And the “Odds ratio for probability of achieving ORR versus exposure” value (ALK+ NSCLC; time-averaged AUC until the first best confirmed response, p = 0.13)?
The value was 0.97 [0.94–1.01].

And the “Odds ratio for probability of iORR versus exposure” value (ALK+ NSCLC; time-averaged AUC until the first best confirmed response, p = 0.15)?
The value was 1.09 [0.98–1.23].

And the “Incidence of ALT increase, Grade ≥2” value ([4]; n = 123)?
The value was 18 (14.6) n (%).

And the “Incidence of ALT increase, Grade ≥3” value ([4]; n = 123)?
Its value is 6 (4.9) n (%).

And the “Incidence of AST increase, Grade ≥2” value ([4]; n = 123)?
Its value is 10 (8.1) n (%).

And the “Incidence of AST increase, Grade ≥3” value ([4]; n = 123)?
The value was 5 (4.1) n (%).

And the “Incidence of Amylase increase, Grade ≥2” value ([4]; n = 123)?
The value was 24 (19.5) n (%).

And the “Incidence of Amylase increase, Grade ≥3” value ([4]; n = 123)?
Its value is 10 (8.1) n (%).

And the “Incidence of Bradycardia, Grade ≥2” value ([4]; n = 123)?
Its value is 2 (1.6) n (%).

What about the “Incidence of CPK increase, Grade ≥3” value ([4]; n = 123) of the same compound?
The value was 32 (26.0) n (%).

And the “Incidence of Hyperglycemia, Grade ≥2” value ([4]; n = 123)?
The value was 2 (1.6) n (%).

What about the “Incidence of Hypertension, Grade ≥2” value ([4]; n = 123) of the same compound?
Its value is 38 (30.9) n (%).

What about the “Incidence of Lipase increase, Grade ≥3” value ([4]; n = 123) of the same compound?
Its value is 22 (17.9) n (%).

What about the “Incidence of Pulmonary AEs (pneumonitis and interstitial lung disease), Grade ≥2” value ([4]; n = 123) of the same compound?
Its value is 2 (1.6) n (%).

What about the “Incidence of Rash, Grade ≥2” value ([4]; n = 123) of the same compound?
The value was 15 (12.2) n (%).

What about the “Incidence of Any AE, Grade ≥3” value ([4]; n = 123, composite of CPK, AST, ALT, amylase, lipase, hyperglycemia, hypertension, bradycardia, rash, pulmonary events) of the same compound?
The value was 64 (52.0) n (%).

And the “Odds ratio, grade ≥3 lipase increase per 1 µg·h/mL/day increase in exposure” value ([4]; time-averaged AUC across days 8 to 14 of cycle one, 95% CI: 1.00–1.10, p = 0.039)?
Its value is 1.05.

And the “Odds ratio, grade ≥2 amylase increase per 1 µg·h/mL/day increase in exposure” value ([4]; time-averaged AUC across days 8 to 14 of cycle one, 95% CI: 1.01–1.11, p = 0.016)?
The value was 1.06.

What about the “Estimated odds ratio, grade ≥3 lipase increase versus exposure” value ([4]; time-averaged AUC to first occurrence of an event, 95% CI: 0.99–1.07, p = 0.146) of the same compound?
Its value is 1.03.

What about the “Estimated odds ratio, grade ≥2 amylase increase versus exposure” value ([4]; time-averaged AUC to first occurrence of an event, p = 0.094) of the same compound?
Its value is 1.04 [0.99–1.09].

And the “Effect of exposure on time to first brigatinib dose reduction (KM plots by exposure quartiles)” value ([4]; time-averaged AUC to the first occurrence of dose reduction)?
Its value is “did not show a discernible effect”.

What about the “Incidence of any-grade AEs of elevated amylase” value [5] of the same compound?
Its value is 15% to 18.
